Values of other authors in patent US11571385B2, “Self-emulsifiable composition, production method therefor, nanoemulsion, and production method therefor” (Kewpie Corporation, priority 2017, dated 2023).

Conditions: solubility in water, Japanese Pharmacopoeia class

| SMILES | solubility |
| --- | --- |
| COc1ccc2c(c1)c(CC(=O)OCC(=O)O)c(C)n2C(=O)c1ccc(Cl)cc1 [Acemetacin, acemetacin] | almost not soluble |
| COc1ccc2c(c1)c(CC(=O)O)c(C)n2C(=O)c1ccc(Cl)cc1 [Indomethacin, indomethacin] | almost not soluble |
| C=CC[C@@H]1/C=C(\C)C[C@H](C)C[C@H](OC)[C@H]2O[C@@](O)(C(=O)C(=O)N3CCCC[C@H]3C(=O)O[C@H](/C(C)=C/[C@@H]3CC[C@@H](O)[C@H](OC)C3)[C@H](C)[C@@H](O)CC1=O)[C@H](C)C[C@@H]2OC [Tacrolimus, tacrolimus] | almost not soluble |
